Source: ChEMBL document CHEMBL4138108, “Novel amidino substituted benzimidazole and benzothiazole benzo[b]thieno-2-carboxamides exert strong antiproliferative and DNA binding properties” (Eur J Med Chem, 2017)
pIC50: −log10 of the molar value. Activity calls are given as the source filed them. No cut-off for these calls is given here.

Tests used:
SW-620 = assay: Antiproliferative activity against human SW620 cells after 72 hrs by MTT assay; assay type: functional, cell-based; settings: SW-620, 72 h
CFPAC-1 = assay: Antiproliferative activity against human CFPAC-1 cells after 72 hrs by MTT assay; assay type: functional, cell-based; settings: CFPAC-1, 72 h
[1] = biological target: T1, DNA topoisomerase 1 (Homo sapiens) (UniProt P11387); assay: Inhibition of human topoisomerase-1 assessed as increase in accumulation of supercoiled pUC19 DNA at 1 to 50 uM in absence of ethidium bromide staining by agarose gel electrophoresis
T1 sequence (whole entry): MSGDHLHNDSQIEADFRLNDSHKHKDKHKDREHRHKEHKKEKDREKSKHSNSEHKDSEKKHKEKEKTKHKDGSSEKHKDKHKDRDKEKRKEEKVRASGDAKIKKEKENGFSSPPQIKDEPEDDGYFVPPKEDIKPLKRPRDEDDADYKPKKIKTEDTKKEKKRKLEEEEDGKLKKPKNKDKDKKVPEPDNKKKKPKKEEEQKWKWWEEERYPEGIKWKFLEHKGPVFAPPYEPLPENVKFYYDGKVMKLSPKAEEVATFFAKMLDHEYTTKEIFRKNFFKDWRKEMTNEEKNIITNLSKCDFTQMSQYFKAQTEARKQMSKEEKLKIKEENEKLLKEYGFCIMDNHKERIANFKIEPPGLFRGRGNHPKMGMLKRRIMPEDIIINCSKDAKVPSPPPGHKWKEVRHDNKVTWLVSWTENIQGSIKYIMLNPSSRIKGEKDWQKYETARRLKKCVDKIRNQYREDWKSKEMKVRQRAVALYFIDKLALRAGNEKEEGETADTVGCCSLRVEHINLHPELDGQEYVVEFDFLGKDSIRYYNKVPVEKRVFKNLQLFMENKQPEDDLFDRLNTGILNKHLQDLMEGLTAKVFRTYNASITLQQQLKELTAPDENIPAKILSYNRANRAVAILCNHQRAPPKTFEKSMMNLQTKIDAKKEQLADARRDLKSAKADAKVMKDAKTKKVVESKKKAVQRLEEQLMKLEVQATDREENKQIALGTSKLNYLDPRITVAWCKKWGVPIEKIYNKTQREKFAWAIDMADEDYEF

[2] = biological target: T1, DNA topoisomerase 1 (Homo sapiens); assay: Poison activity at human topoisomerase-1 assessed as increase in relaxation of supercoiled pUC19 DNA at 1 to 50 uM by ethidium bromide staining based agarose gel electrophoresis
WI-38 = assay: Cytotoxicity against human WI38 cells after 72 hrs by MTT assay; assay type: cell-based; settings: WI-38, 72 h
[3] = biological target: T1, DNA topoisomerase 1 (Homo sapiens); assay: Inhibition of human topoisomerase-1 assessed as increase in accumulation of supercoiled pUC19 DNA at 1 to 50 uM by ethidium bromide staining based agarose gel electrophoresis
Calf thymus DNA [4] = assay: Binding affinity to calf thymus duplex DNA assessed as change in melting temperature at drug to DNA ratio of 1 measured for every mins by spectrophotometric analysis; assay type: nucleic-acid assay; settings: Bos taurus
Calf thymus DNA [5] = assay: Binding affinity to calf thymus duplex DNA assessed as hypochromic effect up to drug to DNA ratio of 1 by UV-visible spectroscopic method; assay type: nucleic-acid assay; settings: Bos taurus
Calf thymus DNA [6] = assay: Binding affinity to calf thymus duplex DNA assessed as change in melting temperature at drug to DNA ratio of 0.5 measured for every mins by spectrophotometric analysis; assay type: nucleic-acid assay; settings: Bos taurus
HepG2 = assay: Antiproliferative activity against human HepG2 cells after 72 hrs by MTT assay; assay type: functional, cell-based; settings: HepG2, 72 h
HeLa = assay: Antiproliferative activity against human HeLa cells after 72 hrs by MTT assay; assay type: functional, cell-based
[7] = Drug uptake in nucleus of human 786-O cells at 10 uM after 4 hrs by propidium iodide staining-based fluorescence microscopic analysis; assay type: ADME, subcellular; settings: 786-0, 4 h
Calf thymus DNA [8] = assay: Binding affinity to calf thymus duplex DNA assessed as bathochromic shift at drug to DNA ratio of 1 to 8 by UV-visible spectroscopic method; assay type: nucleic-acid assay; settings: Bos taurus
Calf thymus DNA [9] = assay: Binding affinity to calf thymus duplex DNA assessed as hyperchromic effect at drug to DNA ratio of 1 to 8 by UV-visible spectroscopic method; assay type: nucleic-acid assay; settings: Bos taurus
Calf thymus DNA [10] = assay: Binding affinity to calf thymus duplex DNA assessed as change in melting temperature at drug to DNA ratio of 0.25 measured for every mins by spectrophotometric analysis; assay type: nucleic-acid assay; settings: Bos taurus
[11] = Binding affinity to AT-rich site of 3'-end radiolabelled 265 bp pBS DNA at 0.01 to 10 uM after 15 mins by DNase I footprinting assay
Calf thymus DNA [12] = assay: Binding affinity to calf thymus duplex DNA assessed as bathochromic shift up to drug to DNA ratio of 8 by UV-visible spectroscopic method; assay type: nucleic-acid assay; settings: Bos taurus
Calf thymus DNA [13] = assay: Binding affinity to calf thymus duplex DNA assessed as hypochromic effect up to drug to DNA ratio of 8 by UV-visible spectroscopic method; assay type: nucleic-acid assay; settings: Bos taurus
Calf thymus DNA [14] = assay: Binding affinity to calf thymus duplex DNA by CD spectrum analysis; assay type: nucleic-acid assay; settings: Bos taurus
Calf thymus DNA [15] = assay: Binding affinity to calf thymus duplex DNA assessed as hyperchromic effect up to drug to DNA ratio of 8 by UV-visible spectroscopic method; assay type: nucleic-acid assay; settings: Bos taurus
[16] = biological target: T1, DNA topoisomerase 1 (Homo sapiens); assay: Poison activity at human topoisomerase-1 assessed as increase in relaxation of supercoiled pUC19 DNA at 50 uM by ethidium bromide staining based agarose gel electrophoresis

Row | Structure (SMILES) | pIC50 (SW-620) | inhibition [1] | inhibition [3] | ΔTm (Calf thymus DNA [4]) | Activity (Calf thymus DNA [5]) | ΔTm (Calf thymus DNA [6]) | pIC50 (HepG2) | pIC50 (HeLa) | Drug uptake [7] | Activity (Calf thymus DNA [8]) | Activity (Calf thymus DNA [9]) | pIC50 (CFPAC-1) | Activity [2] | pIC50 (WI-38) | also measured
1 | O=C(Nc1nc2ccc([N+](=O)[O-])cc2[nH]1)c1sc2cc(C3=NCCN3)ccc2c1Cl | 5.21 | Active | Active | 2.4 °C | Active | 2.4 °C | 5.65 | 5.58 | – | – | – | 5.16 | inactive | 5.39 | –
2 | Cl.O=C(Nc1nc2ccccc2[nH]1)c1sc2cc(C3=NCCN3)ccc2c1Cl | 5.26 | Active | Active | 6.3 °C | Active | 3.7 °C | 5.61 | 5.64 | Active | Active | Active | 5.32 | inactive | 5.53 | –
3 | Cl.Cl.O=C(Nc1nc2ccc(C3=NCCN3)cc2[nH]1)c1sc2cc(C3=NCCN3)ccc2c1Cl | < 4.00 | Active | Active | – | Active | 16.6 °C | < 4.00 | < 4.00 | Active | Active | Active | < 4.00 | inactive | 4.25 | ΔTm (Calf thymus DNA [10]): 14.6 °C; Activity [11]: Active
4 | O=C(Nc1nc2ccccc2s1)c1sc2cc(C3=NCCN3)ccc2c1Cl | 5.15 | – | inactive | – | – | – | 4.85 | 5.94 | – | – | – | 5.30 | inactive | 5.37 | Activity (Calf thymus DNA [12]): inactive; Activity (Calf thymus DNA [13]): Active; Activity (Calf thymus DNA [14]): Dose-dependent effect; Activity (Calf thymus DNA [15]): inactive
5 | O=C(Nc1nc2ccc(C3=NCCN3)cc2s1)c1sc2cc([N+](=O)[O-])ccc2c1Cl | 4.16 | – | – | 0.8 °C | – | -0.8 °C | 5.19 | 5.25 | – | – | – | 5.17 | – | < 4.00 | –

The remaining compounds from weak to strong by pIC50 (SW-620), led by results:

Row | pIC50 (SW-620) | inhibition [1] | inhibition [3] | ΔTm (Calf thymus DNA [4]) | Activity (Calf thymus DNA [5]) | ΔTm (Calf thymus DNA [6]) | pIC50 (HepG2) | pIC50 (HeLa) | Drug uptake [7] | Activity (Calf thymus DNA [8]) | Activity (Calf thymus DNA [9]) | Structure (SMILES) | pIC50 (CFPAC-1) | Activity [2] | pIC50 (WI-38) | also measured
6 | 4.09 | – | – | 1.5 °C | – | 1 °C | 4.02 | 4.31 | – | – | – | O=C(Nc1nc2ccc(C3=NCCN3)cc2s1)c1sc2cc(C3=NCCN3)ccc2c1Cl | 4.21 | – | 4.06 | –
7 | 4.99 | – | – | 3.9 °C | Active | 1.9 °C | 5.27 | 5.41 | Active | Active | Active | Cl.O=C(Nc1nc2ccc(C3=NCCN3)cc2[nH]1)c1sc2ccccc2c1Cl | 4.68 | – | 5.00 | Activity (Calf thymus DNA [14]): Dose-dependent effect; Activity [16]: inactive
8 | 5.35 | – | – | -1.7 °C | – | -0.2 °C | 5.35 | 5.39 | – | – | – | O=C(Nc1nc2ccc(C3=NCCN3)cc2s1)c1sc2ccccc2c1Cl | 5.38 | – | 5.30 | –
